Reference: publication PMC6324650 (Molecular Pharmacology, 2019)

Columns and labels:
[1] = Hydrolysis and cyclization of active NHS ester in PBS; format: physicochemical; details: PBS (pH 8.2), ligand coupling conditions
[2] = system: NK1 receptor; details: 37°C; ref Garland et al., 1994; cited from earlier work

| Molecule | hydrolysis and cyclization of the active NHS ester [1] | time to NK1 receptor internalization upon activation [2] [min] |
| --- | --- | --- |
| O=C(CCCC[C@@H]1SC[C@@H]2NC(=O)N[C@@H]21)NCCCOCCOCCOCCCn1cc(CNC(=O)[C@H](CCCCNC(=O)CCC(=O)ON2C(=O)CCC2=O)NC(=O)CCc2ccc(C3(C(F)(F)F)N=N3)cc2)nn1 [probe 1, 2,5-Dioxopyrrolidin-1-yl 4-oxo-4-(((S)-6-oxo-6-(((1-(15-oxo-19-((3aS,4S,6aR)-2-oxohexahydro-1H-thieno[3,4-d]imidazol-4-yl)-4,7,10-trioxa-14-azanonadecyl)-1H-1,2,3-triazol-4-yl)methyl)amino)-5-(3-(4-(3-(trifluoromethyl)-3H-diazirin-3-yl)phenyl)propanamido)hexyl)amino)butanoate] | partial hydrolysis as well as intramolecular cyclization of the active NHS ester were inevitable |  |
| substance P [SP] |  | 3 |
